Measured values reported in patent US20060014712A1, “Controlled delivery of therapeutic compounds” (CeMines, Inc., priority 2004, published 2006).

What was measured:
B16 melanoma = assay: Mouse tumor xenograft model, peptide membrane patch on skin melanoma; assay type: in vivo; settings: patch immersed in 100 μM peptide solution, start = 100; for tumor size change (%) 1 d: B16 s.c. in C57BL/6 mice
Experimental: The effect of modified mimicking peptides was analyzed by inducing melanomas in mouse skin by grafting suspension of melanoma cells. […] Tumor diameter was measured 1, 2, 3, 5, 7 days after treatmet started.
Methods. Mouse melanoma cell line B16 was cultured as described above, and approximately 5×10^6 cells were injected subcutaneously into the left and right limbs of three C57BL/6JOIaHsd mice.
Administration. Cellulose membrane was immersed in a solution of peptides (100 μM). Size of tumor was measured 1, 2, 3, 5 and 7 days following patch treatment. At the same time new patch was applied. All experiments were done in triplicates (3 animals per group).

SK-MEL-28 [1] = assay: WST-1 test (mitochondrial activity); assay type: cell-based, human; settings: conc 10 µM, untreated = 1
WM 266-4 [2] = assay: WST-1 test (mitochondrial activity); assay type: cell-based, human; settings: modified peptides, conc 10 µM, untreated = 1
Experimental: (§1) Methods. Human melanoma cell lines SK-MEL-28 and WM 2664 and mouse melanoma cell line B16 were obtained from the American Tissue Culture Collection (ATCC). Cells were cultured according to recommendations of ATCC (DMEM, 10% FCS, penicillin+streptomycin) and used in experiments after two passages in the laboratory. Cells were grown in 24 well plates, each treatment in triplicates. Cells were plated 16 hours prior treatments started. Peptides were added to the media, and media was changed every day during 7 day experiment. […] Methods. Human melanoma cell lines SK-MEL-28 and WM 266-4 were obtained from the American Tissue Culture Collection (ATCC) and were cultured according to recommendations of ATCC (DMEM, 10% FCS, penicillin+streptomycin). Human keratinocytes were obtained from Clonetics and cultured according to manufacturers protocol. Cells were used in experiments after two passages in the laboratory. Cells were grown in 24 well plates, each treatment in triplicates. Cells were plated 16 hours prior treatments started. Peptides were added to the media, and media was changed every day during 7 day experiment. […] WST-1 test was performed to measure mitochondrial activity, which can also be used as a measure of cell number.

SK-MEL-28 [3] = assay: Cell counting after 7 day peptide treatment; assay type: cell-based, human; settings: conc 10 µM, start count 10
Experimental: (§2) The ability to block interaction of MITF, SOX10 and STAT3 with active transcriptional complex and inhibit proliferation and stimulate apoptosis of melanoma cells were tested on human melanoma cell lines SK-MEL-28 and WM 266-4, and mouse melanoma cell line B16. Methods. Human melanoma cell lines SK-MEL-28 and WM 2664 and mouse melanoma cell line B16 were obtained from the American Tissue Culture Collection (ATCC). Cells were cultured according to recommendations of ATCC (DMEM, 10% FCS, penicillin+streptomycin) and used in experiments after two passages in the laboratory. Cells were grown in 24 well plates, each treatment in triplicates. Cells were plated 16 hours prior treatments started. Peptides were added to the media, and media was changed every day during 7 day experiment. CPP concentration was 10 μM For cell counting, cells were trypsinized (0.25% Trypsin, 2 mM EDTA) in Ca^+2, Mg^+2 free PBS. Cells were precipitated and resuspended in 100 μl of PBS, and 5 μl were removed for counting Methods. Human melanoma cell lines SK-MEL-28 and WM 266-4 were obtained from the American Tissue Culture Collection (ATCC) and were cultured according to recommendations of ATCC (DMEM, 10% FCS, penicillin+streptomycin). Human keratinocytes were obtained from Clonetics and cultured according to manufacturers protocol. Cells were used in experiments after two passages in the laboratory. Cells were grown in 24 well plates, each treatment in triplicates. Cells were plated 16 hours prior treatments started. Peptides were added to the media, and media was changed every day during 7 day experiment. CPP concentration was 10 μM. For cell counting, cells were trypsinized (0.25% Trypsin, 2 mM EDTA) in Ca, Mg free PBS. Cells were precipitated and resuspended in 100 μl of PBS, and 5 μl were removed for counting.

WM 266-4 [4] = assay: Apoptosis, Annexin V-Cy3 Apoptosis Kit; assay type: cell-based, human; settings: conc 10 µM
Experimental: as §1, with “Apoptosis” for “WST-1 test”, “analyzed using Biovision Annexin V-Cy3 Apoptosis Kit according” for “performed”, “manufacturers protocols.” for “measure mitochondrial activity, which can also be used as a measure of cell number.”

Human keratinocytes [5] = assay: WST-1 test (mitochondrial activity); assay type: cell-based; settings: keratinocyte; modified peptides; conc 10 µM; untreated = 1
Experimental: Methods. Human melanoma cell lines SK-MEL-28 and WM 266-4 were obtained from the American Tissue Culture Collection (ATCC) and were cultured according to recommendations of ATCC (DMEM, 10% FCS, penicillin+streptomycin). Human keratinocytes were obtained from Clonetics and cultured according to manufacturers protocol. Cells were used in experiments after two passages in the laboratory. Cells were grown in 24 well plates, each treatment in triplicates. Cells were plated 16 hours prior treatments started. Peptides were added to the media, and media was changed every day during 7 day experiment. […] WST-1 test was performed to measure mitochondrial activity, which can also be used as a measure of cell number.

Human keratinocytes [6] = assay: Cell counting after 7 day peptide treatment; assay type: cell-based; settings: keratinocyte, modified peptides, conc 10 µM, start count 10
Experimental: Methods. Human melanoma cell lines SK-MEL-28 and WM 266-4 were obtained from the American Tissue Culture Collection (ATCC) and were cultured according to recommendations of ATCC (DMEM, 10% FCS, penicillin+streptomycin). Human keratinocytes were obtained from Clonetics and cultured according to manufacturers protocol. Cells were used in experiments after two passages in the laboratory. Cells were grown in 24 well plates, each treatment in triplicates. Cells were plated 16 hours prior treatments started. Peptides were added to the media, and media was changed every day during 7 day experiment. CPP concentration was 10 μM. For cell counting, cells were trypsinized (0.25% Trypsin, 2 mM EDTA) in Ca, Mg free PBS. Cells were precipitated and resuspended in 100 μl of PBS, and 5 μl were removed for counting.

Human keratinocytes [7] = assay: Apoptosis, Annexin V-Cy3 Apoptosis Kit; assay type: cell-based; settings: keratinocyte, modified peptides, conc 10 µM
B16 [8] = assay: Cell counting after 7 day peptide treatment; assay type: cell-based, mouse; settings: CPP mimicking peptides, conc 10 µM, start count 10
Experimental: The ability to block interaction of MITF, SOX10 and STAT3 with active transcriptional complex and inhibit proliferation and stimulate apoptosis of melanoma cells were tested on human melanoma cell lines SK-MEL-28 and WM 266-4, and mouse melanoma cell line B16. Methods. Human melanoma cell lines SK-MEL-28 and WM 2664 and mouse melanoma cell line B16 were obtained from the American Tissue Culture Collection (ATCC). Cells were cultured according to recommendations of ATCC (DMEM, 10% FCS, penicillin+streptomycin) and used in experiments after two passages in the laboratory. Cells were grown in 24 well plates, each treatment in triplicates. Cells were plated 16 hours prior treatments started. Peptides were added to the media, and media was changed every day during 7 day experiment. […] Cells were precipitated and resuspended in 100 μl of PBS, and 5 μl were removed for counting

WM 266-4 [9] = assay: Cell counting after 7 day peptide treatment; assay type: cell-based, human; settings: conc 10 µM, start count 10
Experimental: as §2, with “CPP concentration was 10 μM For cell counting, cells were trypsinized (0.25% Trypsin, 2 mM EDTA) in Ca^+2, Mg^+2 free PBS.” left out, “CPP concentration was 10 μM.” left out

B16 [10] = assay: Apoptosis, Annexin V-Cy3 Apoptosis Kit; assay type: cell-based, mouse; settings: CPP mimicking peptides, conc 10 µM
Experimental: Methods. Human melanoma cell lines SK-MEL-28 and WM 2664 and mouse melanoma cell line B16 were obtained from the American Tissue Culture Collection (ATCC). Cells were cultured according to recommendations of ATCC (DMEM, 10% FCS, penicillin+streptomycin) and used in experiments after two passages in the laboratory. Cells were grown in 24 well plates, each treatment in triplicates. Cells were plated 16 hours prior treatments started. Peptides were added to the media, and media was changed every day during 7 day experiment. CPP concentration was 10 μM Apoptosis was analyzed using Biovision Annexin V-Cy3 Apoptosis Kit according to manufacturers protocols.

Dct/Trp2 promoter [11] = assay: Transient CAT assay, Dct/Trp2 proximal promoter-CAT construct in WM 266-4; assay type: cell-based, human; settings: CPP concentration 10 μM
Experimental: (§3) SOX10 and MITF interact with the proximal promoter of Dct/Trp2 gene and induces its activity (Ludwig A. et al., FEBS Lett. 556 (1-3):236-244 (2004)). Thus, a Dct/Trp2 proximal promoter reporter construct was used to analyze effect of mimicking peptides on promoter activity using transient CAT assay.
(§4) Methods. Human melanoma cell lines SK-MEL-28 and WM 266-4 were obtained from the American Tissue Culture Collection (ATCC) and were cultured according to recommendations of ATCC (DMEM, 10% FCS, penicillin+streptomycin). Dct/Trp2 proximal promoter-CAT construct (Ludwig et al., supra) was used in all experiments.
(§5) Cells were transfected by using FuGene reagent (Roche Molecular Biochemicals) according to manufacturer's instructions. Freeze-thaw lysates of cells collected 48 h after the transfection were assayed for CAT activity as described (Pothier, F. et al., DNA Cell Biol. 11(1):83-90 (1992)). At least two different DNA preparations were tested for each plasmid. To normalize the transfection efficiencies, cells were cotransfected with pON260 expressing β-galactosidase (Spaete, R. R. and Mocarski, E. S., J. Virol. 54(3):817-24 (1985); Spaete, R. R. and Mocarski, E. S., J. Virol. 56(1):13543 (1985)). All the CAT activities were normalized to total protein and β-galatosidase activity.
(§6) Following transfection, cells were grown in 6 well plates, each treatment in triplicates. Peptides were added to the media and media was changed every day during the 7 day experiment. CPP concentration was 10 μM.

Dct/Trp2 promoter [12] = assay: Transient CAT assay, Dct/Trp2 proximal promoter-CAT construct in SK-MEL-28; assay type: cell-based, human; settings: CPP concentration 10 μM
Experimental: as §3, §4, §5, §6

[13] = modified (inhibitor/MMP2, MMP9 site) peptides

Sequence	tumor size change (%) 1 d (B16 melanoma) [%]	tumor size change (%) 2 d (B16 melanoma) [%]	tumor size change (%) 3 d (B16 melanoma) [%]	tumor size change (%) 5 d (B16 melanoma) [%]	tumor size change (%) 7 d (B16 melanoma) [%]	WST-1 7 d (SK-MEL-28 [1]; modified peptides)	WST-1 7 d (WM 266-4 [2])	Cell Count 7 d (SK-MEL-28 [3]; [13])	WST-1 7 d (Human keratinocytes [5])	Cell Count 7 d (Human keratinocytes [6])	Apoptosis 7 d/% (Human keratinocytes [7]) [%]	Cell Count 7 d (WM 266-4 [9]; modified peptides)	further results
TTGGSSPQGLEAKRPKKRKVRRRKMQQLEQMLTALDQMRRSIVSELAGLLS [STAT3-int1M]	109	124	154	181	217	0.84	0.91	42	1	41	2		Apoptosis 7 d/% (WM 266-4 [4]; modified peptides): 13%
RPKKRKVRRRKMQQLEQMLTALDQMRRSIVSELAGLLS [STAT3-int1]													Cell Count 7 d (B16 [8]): 59; Cell Count 7 d (WM 266-4 [9]; CPP mimicking peptides): 34; WST-1 7 d (SK-MEL-28 [1]; CPP mimicking peptides): 0.79; Apoptosis 7 d/% (B16 [10]): 28%; Cell Count 7 d (SK-MEL-28 [3]; CPP mimicking peptides): 40; Apoptosis 7 d/% (WM 266-4 [4]; CPP mimicking peptides): 10%; Dct/Trp2 promoter activity (CAT assay) (Dct/Trp2 promoter [11]): do not have significant effect; Dct/Trp2 promoter activity (CAT assay) (Dct/Trp2 promoter [12]): do not have significant effect
TTGGSSPQGLEAKRPKKRKVRRRVKRPMNAFMVWAQAARRKLADQY [SOX10-int1M]	111	127	146	171	224	0.72	0.7	35	0.93	37	6	22	
TTGGSSPQGLEAKRPKKRKVRRRQLMLEPYALDMSRIRVLSESLGLATQSG [Scr-int1M, reference compound]	109	147	175	211	272	1	1	48	1	40		30	
